In test [1] the target is T1, Mu-type opioid receptor (Rattus norvegicus, UniProt P33535). Kind of test: Inhibitory concentration against [3H]DAMGO binding to Opioid receptor mu 1 in rat brain membrane. Type of test: cell membranes.
Test [2] has as its target T1, Mu-type opioid receptor. Kind of test: Compound was evaluated for the binding affinity of Opioid receptor mu 1 by displacing the radioligand [3H]DAMGO from rat brain membrane.

Non-standard residues stand in square brackets, D forms with d. Residues, ends and D or L forms follow the SMILES beside them. β3hF = N[C@H](CC(=O)O)Cc1ccccc1

T1 sequence (P33535 whole entry): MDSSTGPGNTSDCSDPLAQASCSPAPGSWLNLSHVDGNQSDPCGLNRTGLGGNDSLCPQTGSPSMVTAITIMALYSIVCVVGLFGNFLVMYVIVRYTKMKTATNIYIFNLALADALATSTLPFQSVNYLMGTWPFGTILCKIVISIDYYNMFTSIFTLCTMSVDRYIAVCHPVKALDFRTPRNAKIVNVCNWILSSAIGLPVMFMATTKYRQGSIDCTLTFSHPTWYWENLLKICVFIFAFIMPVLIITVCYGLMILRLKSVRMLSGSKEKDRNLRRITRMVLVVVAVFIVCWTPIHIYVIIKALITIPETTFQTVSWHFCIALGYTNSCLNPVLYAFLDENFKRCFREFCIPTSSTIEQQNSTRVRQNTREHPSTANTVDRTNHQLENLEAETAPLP

On Mu-type opioid receptor [1], `N[C@@H](Cc1ccc(O)cc1)C(=O)N1CCC[C@H]1C(=O)N[C@@H](Cc1ccccc1)C(=O)N1CCC[C@H]1C(=O)NCC(=O)O` (H-YPFPG-OH) came in with an IC50 of 4.5 µM. Moreover, at Mu-type opioid receptor [2], the Ki stood at 1620 nM.

`CC[C@H](C)[C@H](NC(=O)[C@@H]1CCCN1C(=O)CNC(=O)[C@@H]1CCCN1C(=O)[C@H](Cc1ccccc1)NC(=O)[C@@H]1CCCN1C(=O)[C@@H](N)Cc1ccc(O)cc1)C(=O)O` (H-YPFPGPI-OH): on Mu-type opioid receptor [1], the IC50 was 20 µM. Moreover, the affinity on Mu-type opioid receptor [2], expressed as Ki, was 7540 nM.

For `N[C@@H](Cc1ccc(O)cc1)C(=O)N1CCC[C@H]1C(=O)N[C@H](CC(=O)N1CCC[C@H]1C(=O)NCC(=O)O)Cc1ccccc1` (H-YP[β3hF]PG-OH), the half-inhibitory concentration (IC50) on Mu-type opioid receptor [1] was 2 µM. For the same compound, the affinity on Mu-type opioid receptor [2], expressed as Ki, was 720 nM.

For `CC[C@H](C)[C@H](NC(=O)[C@@H]1CCCN1C(=O)CNC(=O)[C@@H]1CCCN1C(=O)C[C@H](Cc1ccccc1)NC(=O)[C@@H]1CCCN1C(=O)[C@@H](N)Cc1ccc(O)cc1)C(=O)O` (H-YP[β3hF]PGPI-OH), the half-maximal inhibitory concentration (IC50) on Mu-type opioid receptor [1] amounted to 4 µM. This compound showed a Ki at Mu-type opioid receptor [2] of 1440 nM.

In general, IC50 refers to the concentration at which inhibition is half-maximal. A high value points to a need for much substance. As usually defined, the Ki is a measure of affinity in units of concentration, obtained from inhibition or displacement. The low end stands for a stronger hold on the target, the high end for a looser hold on the target.
